Key:
[1] = human, in vivo; cited from earlier work
Excerpt: Teicoplanin, along with the glycopeptide antibiotic vancomycin, has an important role in the treatment of Gram-positive bacterial infections, including those caused by methicillin-resistant Staphylococcus aureus (MRSA). […] Based on the European Medicines Agency’s summary of the product characteristics (SmPC) for teicoplanin, adults and the elderly with normal renal function have recommended specific do ...

[2] = 12 mg/kg every 12 h x4, then 12 mg/kg daily; median CLCR 113 mL/min; cited from earlier work
[3] = in vivo; cited from earlier work
Excerpt: This study had several limitations. First, a small sample size of 12 subjects was insufficient to detect a variety of meaningful covariates, although eGFR and body weight were identified as significant factors. Thus, future studies with larger patient cohorts will be needed to develop more robust models. […] This decision, aimed at enhancing model stability and interpretability, involved employing the FOCE-I method and facing challenges with other estimation methods due to our ...

[4] = Single 200 mg IV infusion (30 min) PK in 12 healthy adults, noncompartmental analysis; format: in vivo, human; details: n = 12; for Cmax: plasma, HPLC-MS/MS
Protocol: (§1) A 200 mg dose of teicoplanin in 100 mL of normal saline was administered intravenously to subjects over 30 min. Venous blood samples (6 mL each) were collected into heparinized tubes at 33, 36, 45, and 90 min, and 4, 8, 48–120, and 168–240 h after starting the infusion. Eight sampling points were used per subject to analyze PK parameters via noncompartmental and population PK methods.
(§2) Plasma levels of teicoplanin were quantified using tandem mass spectrometry coupled with HPLC (HPLC-MS/MS). The analytical system utilized included an LC-40 HPLC unit from Shimadzu Co. (Kyoto, Japan) paired with a Gemini C18 analytical column from Phenomenex (Torrance, CA, USA). A SCIEX 4500 QTRAP mass spectrometer (Sciex, Redwood City, CA, USA) facilitated the MS-based detection. Calibration standards were prepared by combining 100 μL of a reference solution with 10 μL of a vancomycin internal standard (concentration of 100 μg/mL) in microcentrifuge tubes. To this mixture, 400 μL of acetonitrile was added to precipitate proteins, followed by vortex mixing for 60 s. Following centrifugation at 12,000 rpm for 2 min at 4 °C, the clear supernatant was diluted 10-fold with deionized water. A 10 μL sample of this solution was then introduced into the HPLC-MS/MS for analysis. In a parallel procedure for plasma samples, after the addition of the vancomycin internal standard and acetonitrile-induced protein precipitation, the sample was processed like that of the calibration standard preparation before HPLC-MS/MS analysis. The teicoplanin concentration in the plasma was determined by comparing the peak area ratio of teicoplanin to the internal standard and employed a batch-specific calibration curve equation, adjusted for 1/x^2 weighting.
A noncompartmental analysis (NCA) was completed to evaluate the plasma concentration–time profiles of teicoplanin using the R programming language and the NonCompart package. The following PK parameters were assessed: maximum observed plasma concentration (Cmax), time of last measurable concentration (Tlast), concentration corresponding to Tlast (Clast), area under the plasma concentration–time curve (AUC) from the start of dosing to the last quantifiable concentration (AUClast), AUC from the start of dosing to infinity (AUCinf), area under the first moment curve (AUMC) from 0 h to the Tlast (AUMClast), AUMC extrapolated to infinity, based on the last observed concentration (AUMCinf), mean residence time from 0 h to infinite (MRTinf), total body clearance as determined through NCA (CLNCA), volume of distribution (Vd) determined via NCA (VzNCA), steady-state Vd determined via NCA (VssNCA), and terminal elimination half-life (t1/2λz). Cmax, Tlast, and Clast were determined directly from the observed data. AUClast and AUMClast were calculated employing the linear-up and log-down trapezoidal method. AUCinf was estimated by adding Clast/λz to AUClast, where λz is the terminal elimination rate constant, which was determined by log-linear regression of the terminal phase plasma concentrations. AUMCinf was calculated using the following formula: AUMClast + (Tlast × Clast)/λz + Clast/λz^2, MRTinf as AUMCinf/AUCinf—infusion time/2, CLNCA as dose/AUCinf, VzNCA as CLNCA/λz, VssNCA as MRTinf × CLNCA, and t1/2λz as ln(2)/λz.

[5] = cited from earlier work
Excerpt: In the present study, the PK profile of teicoplanin in healthy adults was characterized using a three-compartment model. Typically, in studies with sparse sampling designs, the PK profile of teicoplanin is often delineated using one- [15, 16] or two-compartment models; however, previous studies using dense sampling approaches have also applied a three-compartment model. Such models are characterized by three distinct slopes when plotted on a graph with the y-axis representing a logarithmic scale, corresponding to the composition of three exponential equations ...

[6] = Population PK analysis (NONMEM, three-compartment model), 12 healthy adults, 200 mg IV; format: in vivo; details: for CL, total clearance / AUC (dose/CL) / VC, central volume of distribution / Vss, steady-state volume of distribution: individual parameters; for CL, total clearance: n = 12; for 1st t1/2 / 2nd t1/2 / 3rd t1/2: three-compartment model
Protocol: as §1, §2
The PK analysis of teicoplanin was completed using a nonlinear mixed-effects modeling technique with NONMEM software (version 7.5, ICON Clinical Research LLC, North Wales, PA, USA). Parameter estimation for both the observed and the unaccounted-for random effects was achieved by applying the First-Order Conditional Estimation with Interaction approach. This method facilitates the consideration of interactions between the unexplained interindividual variability (IIV) of PK parameters and the residual unexplained variability in the observed concentrations. To model the PK profiles of teicoplanin, we used one-compartment (ADVAN1 TRANS2), two-compartment (ADVAN3 TRANS4), and three-compartment (ADVAN11 TRANS4) models which were based on first-order kinetics, with the exception of zero-order infusion processes.
Model selection and evaluation were based on several criteria: NONMEM’s objective function values (OFVs), parameter estimate precision (reflected by relative standard errors), IIV shrinkage, diagnostic fit plots, visual predictive checks, and bootstrap analysis. For nested model comparisons, a decrease in OFV (ΔOFV) exceeding 3.84 (for a χ^2 distribution with one degree of freedom, df) or 5.99 (for a χ^2 distribution with two df) indicated meaningful improvements at a significance level of p < 0.05. The diagnostic plots for model assessment include conditional weighted residuals (CWRES) against time and population predictions (PRED), as well as actual observations compared with both PRED and individual predictions. Visual predictive checks (VPC) were conducted by matching the observed concentrations to the 80% prediction intervals from 1000 simulations based on the final PK model. The variability in the final predictions was determined by calculating the median and 95% confidence intervals for the PK parameters from 2000 bootstrap samples.
Significant covariates affecting PK parameters were determined using stepwise selection, with inclusion at p < 0.01 (ΔOFV < −6.635) and exclusion at p < 0.001 (ΔOFV > 10.83) for one df. Covariates had to show statistical and clinical relevance. […]

[7] = human, in vivo; cited from earlier work; remark: listed apart in the source
Protocol: In the second simulation, the PTA was determined for different LD and MD regimens to satisfy both criteria: a Ctrough greater than 20 mg/L and an AUC/MIC ratio of at least 800. Adopting a similar approach to the first simulation, we used two distinct LD and MD combinations. The proportion of patients achieving both therapeutic targets was continuously assessed from days 3 to 7 following the initiation of treatment.

## teicoplanin
[1]
  elimination half-life: 83 to 182 h
[2]
  steady-state Ctrough, median (range): 15.9 (8.8–29.9) mg/L
[3]
  linear PK range: 2 to 25 mg/kg
[4]; last 3 or 4 points, mean (CV%)
  t1/2λz, terminal elimination half-life: 54.6 (13.2%) h
[4]; mean (CV%)
  AUCinf: 307 (15.4%) mg/L·h
  AUClast: 273 (16.6%) mg/L·h
  AUMCinf: 22,700 (14.8%) mg/L·h^2
  AUMClast: 13,800 (16.0%) mg/L·h^2
  CLNCA: 0.0105 (15.2%) L/h/kg
  Clast: 0.431 (24.9%) mg/L
  MRTinf: 74.0 (12.8%) h
  VssNCA: 0.776 (19.6%) L/kg
  Cmax: 32.1 (12.9%) mg/L
[4]; median (IQR)
  AUCinf: 305 (279–332) mg/L·h
  AUClast: 270 (247–302) mg/L·h
  AUMCinf: 22,300 (20,200–23,200) mg/L·h^2
  AUMClast: 13,800 (12,300–15,000) mg/L·h^2
  CLNCA: 0.0103 (0.00896–0.0117) L/h/kg
  Clast: 0.422 (0.348–0.470) mg/L
  MRTinf: 76.7 (68.0–80.7) h
  Tlast: 192 (169–194) h
  VssNCA: 0.734 (0.661–0.859) L/kg
  t1/2λz, terminal elimination half-life: 55.0 (51.9–58.6) h
  Cmax: 30.9 (29.5–35.6) mg/L
[5]
  V1: 4.32 L
  V2: 8.35 L
  V3: 68.6 L
  VSS: 81.3 L
[5]; mean 64 years, 69.1 kg, CLCR 72 mL/min
  CL: 0.490 L/h
[6]; 2000 bootstrap samples
  Q2, bootstrap median (95% CI): 4.45 (3.63–5.86) L/h
  Q3, bootstrap median (95% CI): 1.75 (1.44–2.13) L/h
  V1, bootstrap median (95% CI): 3.97 (3.15–4.62) L
  V2, bootstrap median (95% CI): 8.33 (7.07–9.85) L
  θ1 (CL), bootstrap median (95% CI): 0.693 (0.653–0.74) L/h
  θ2, bootstrap median (95% CI): 0.789 (0.422–1.16)
  θ7 (V3), bootstrap median (95% CI): 69.7 (55.8–82.6) L
  θ8, bootstrap median (95% CI): 1.73 (0.67–2.44)
[6]; final model estimate
  CL typical value θ1, CL = θ1 × (CE/105.27)^θ2, estimate: 0.693 L/h
  Q2 = θ4, intercompartmental clearance V1-V2, estimate: 4.45 L/h
  Q3 = θ6, intercompartmental clearance V1-V3, estimate: 1.76 L/h
  V1 = θ3, central volume of distribution, estimate: 3.96 L
  V2 = θ5, first peripheral volume, estimate: 8.24 L
  θ7, V3 = θ7 × (WT/67.85)^θ8, second peripheral volume, estimate: 69.8 L
  θ8, exponent of weight on V3, estimate: 1.73
[6]; healthy subjects
  VSS typical value (V1 + V2 + V3): 82.0 L
[6]; mean (CV%)
  CL, total clearance: 0.0107 (14.0%) L/h/kg
  AUC (dose/CL): 299 (16.0%) mg/L·h
  VC, central volume of distribution: 0.0644 (28.9%) L/kg
  Vss, steady-state volume of distribution: 1.21 (23.0%) L/kg
  1st t1/2: 0.345 (36.3%) h
  2nd t1/2: 4.12 (22.2%) h
  3rd t1/2: 103 (29.9%) h
[6]; median (IQR)
  CL, total clearance: 0.0104 (0.00961–0.0122) L/h/kg
  AUC (dose/CL): 300 (263–316) mg/L·h
  VC, central volume of distribution: 0.0649 (0.0526–0.0733) L/kg
  Vss, steady-state volume of distribution: 1.24 (1.06–1.34) L/kg
  1st t1/2: 0.317 (0.289–0.417) h
  2nd t1/2: 4.23 (3.78–4.83) h
  3rd t1/2: 97.9 (83.1–116) h
[7]
  patients achieving AUC ≥800 mg/L·h: 100%

Source: publication PMC11053983, “Beyond One-Size-Fits-All: Tailoring Teicoplanin Regimens for Normal Renal Function Patients Using Population Pharmacokinetics and Monte Carlo Simulation” (Pharmaceutics, 2024)
